Data published in patent US10329249B1, “Sulindac derivatives” (KING SAUD UNIVERSITY, priority 2018, dated 2019).

Columns and labels:
[1] = DPPH free radical scavenging (antioxidant activity); details: 100 μg/mL compound in 3 mL 0.004% DPPH, 520 nm after 30 min; mean of three replicates ±SD
Description: The antioxidant activity was measured based on the scavenging activity of the stable DPPH free radical. 100 μg/mL of the twenty-five sulindac derivative compounds were added to 3 mL 0.004% DPPH solution. Methanol was added to 3 mL 0.004% DPPH solution for the control sample. Absorbance was determined at 520 nm after 30 min. Butylated hydroxytoluene (BHT) was used as a reference drug. The percent inhibition was calculated by the equation:
[formula] where At is the absorbance of the compound and A0 is the absorbance of the control.

[2] = system: yeast-induced hyperthermia; test: Anti-pyretic study, brewer's yeast-induced hyperthermia; format: in vivo, mice; details: mean ±SEM; for Rectal temperature 30 min: 30 min after drug; for Rectal temperature 30 min / Rectal temperature 60 min / Rectal temperature 120 min: Compound 8 150 mg/kg; for Rectal temperature 30 min / Rectal temperature 60 min / Rectal temperature 120 min / Rectal temperature, Control: Sulindac 100 mg/kg; for Rectal temperature 60 min: 60 min after drug; for Rectal temperature 120 min: 120 min after drug; for Rectal temperature, Control: after yeast injection, pre-drug, groups Compound 8 150 mg/kg; for Rectal temperature, Normal: before yeast, groups later given Compound 8 150 mg/kg or Sulindac 100 mg/kg
Description: (§1) All animal experiments used healthy male albino rats (200 g-220 g) and mice. The animals were kept in standard plastic animal cages in groups of six animals each with a 12 hour light and dark cycle. The animals were acclimatized to laboratory conditions for a week prior to the experiments.
In an anti-pyretic study, hyperthermia was induced in mice by subcutaneous injection of 20 mL/kg of a 20% aqueous suspension of brewer's yeast in the back below of nape of the neck. The animals were fasted for 24 hours. Water was made available. Control rectal temperature was recorded 24 hours after the yeast injection to determine the pyretic response to yeast. Rectal temperature recordings were then taken 1 hour prior to drug administration in the fevered animals to serve as a pre drug control. […]

hot plate nociception = test: Analgesic activity by hot plate method; format: in vivo, mice; details: Sulindac 100 mg/kg oral; for % Inhibition 30 min / Reaction Time 30 min / % Inhibition 60 min / Reaction Time 60 min / % Inhibition 120 min / Reaction Time 120 min: Compound 8 150 mg/kg; for Reaction Time 30 min / Reaction Time 60 min / Reaction Time 120 min / Reaction Time, Pre-drug: mean ±SEM; for Reaction Time, Pre-drug: pre-drug baseline, groups Compound 8 150 mg/kg
Description: as §1
In an analgesic activity by hot plate method study, animals were dropped gently on a hot plate maintained at […]. Reaction time was recorded as the interval extending from the instant the animal reached the hot plate until the moment the animal licked its forefeet or jumped off. […]

[3] = system: acetic acid induced writhing; test: Analgesic activity by acetic acid induced writhing; format: in vivo, mice; details: Compound 8 150 mg/kg, Sulindac 100 mg/kg; for % Inhibition (writhing): versus acetic acid group; for Movements (writhing): counted for 20 minutes after i.p. acetic acid, mean ±SEM
Description: as §1
In an analgesic activity by writhing study, writhing was induced in mice by intraperitoneal administration of 0.1 mL of 1% acetic acid. The number of writhing movements was counted for 20 minutes. The writhing test was performed after the administration of the vehicle or sulindac derivative compound.

[4] = LD50 by the Karber method; format: in vivo; details: 24 hours observation
Description: In a study of the LD50 of sulindac derivative Compound 8, the LD50 (lethal dose 50%) was calculated for compound 8 by the Karber method. For determination of LD50, an observation was made for 24 hours, and symptoms of toxicity and rate of mortality were noted. Expired animals were counted at the end of the study period for the calculation of LD50 according to: LD50=LD100−Σ(a×b)/n, where n is the total number of animals in a group, a is the difference between two successive doses of administered extract/substance, b is the average number of dead animals in two successive doses, and LD100 is the lethal dose causing 100% death of all test animals.

Structure (SMILES) | Rectal temperature 30 min [2] [°C] | Rectal temperature 60 min [2] [°C] | Rectal temperature 120 min [2] [°C] | Rectal temperature, Control [2] [°C] | Rectal temperature, Normal [2] [°C] | % Inhibition 30 min (hot plate nociception) [%] | Reaction Time 30 min (hot plate nociception) [s] | % Inhibition 60 min (hot plate nociception) [%] | Reaction Time 60 min (hot plate nociception) [s] | % Inhibition 120 min (hot plate nociception) [%] | Reaction Time 120 min (hot plate nociception) [s] | Reaction Time, Pre-drug (hot plate nociception) [s] | % Inhibition (writhing) [3] [%] | Movements (writhing) [3] | further results
CC1=C(CC(=O)N/N=C\c2ccc(N(C)C)cc2)c2cc(F)ccc2/C1=C\c1ccc([S+](C)[O-])cc1 (stereo not drawn) [Compound 8] | 38.15 ± 0.10 | 37.83 ± 0.15 | 37.33 ± 0.12 | 38.38 ± 0.19 | 35.16 ± 0.10 | 15 | 7.66 ± 0.42 | 47.50 | 9.83 ± 0.30 | 67.50 | 11.16 ± 0.30 | 6.66 ± 0.33 | 56.86 | 14.66 ± 0.95 | Scavenging Effect [1]: 85.10 ± 6.80%; # Dead ([4]; dose 100 mg/kg): 0; # Dead ([4]; dose 200 mg/kg): 0; # Dead ([4]; dose 400 mg/kg): 1; # Dead ([4]; dose 800 mg/kg): 3; # Dead ([4]; dose 1600 mg/kg): 5; # Dead ([4]; dose 2000 mg/kg): 9; LD50 at 24 h ([4]; in vivo, Karber method, LD50=LD100−Σ(a×b)/n): 1310 mg/kg
CC1=C(CC(=O)O)c2cc(F)ccc2/C1=C\c1ccc([S+](C)[O-])cc1 (stereo not drawn) [Sulindac] | 37.46 ± 0.14 | 37.16 ± 0.09 | 36.23 ± 0.08 | 38.21 ± 0.31 | 35.21 ± 0.11 | 41.30 | 10.83 ± 0.47 | 54.34 | 11.83 ± 0.47 | 86.95 | 14.33 ± 0.42 | 7.66 ± 0.33 | 74.01 | 8.83 ± 0.70 | –
